Measurements as given in the NIST ThermoML archive (doi:10.1016/j.jct.2013.12.019).
± gives the expanded uncertainty stated by the source.

Test: mn = molality of the nth substance listed, in mol/kg
Conditions: 101 kPa, Liquid, Alternating current cell with electrodes

## CCCCCCCCCCCC[N+](C)(C)C.[Br-] [dodecyltrimethylammonium bromide] + O
293.15 K, m1 = 0.0015
  electrical conductivity: 0.014 ± 0.0003 S/m
293.15 K, m1 = 0.003
  electrical conductivity: 0.027 ± 0.0005 S/m
293.15 K, m1 = 0.0045
  electrical conductivity: 0.0397 ± 0.0009 S/m
293.15 K, m1 = 0.006
  electrical conductivity: 0.0524 ± 0.0011 S/m
293.15 K, m1 = 0.0075
  electrical conductivity: 0.0645 ± 0.0014 S/m
293.15 K, m1 = 0.009
  electrical conductivity: 0.0763 ± 0.0016 S/m
293.15 K, m1 = 0.0105
  electrical conductivity: 0.088 ± 0.0019 S/m
293.15 K, m1 = 0.012
  electrical conductivity: 0.0995 ± 0.0021 S/m
293.15 K, m1 = 0.0135
  electrical conductivity: 0.111 ± 0.0023 S/m
293.15 K, m1 = 0.015
  electrical conductivity: 0.121 ± 0.0025 S/m
293.15 K, m1 = 0.0165
  electrical conductivity: 0.13 ± 0.0027 S/m
293.15 K, m1 = 0.018
  electrical conductivity: 0.136 ± 0.0027 S/m
293.15 K, m1 = 0.0195
  electrical conductivity: 0.139 ± 0.0028 S/m
293.15 K, m1 = 0.021
  electrical conductivity: 0.142 ± 0.0028 S/m
293.15 K, m1 = 0.0225
  electrical conductivity: 0.145 ± 0.0029 S/m
293.15 K, m1 = 0.024
  electrical conductivity: 0.147 ± 0.003 S/m
293.15 K, m1 = 0.0255
  electrical conductivity: 0.15 ± 0.003 S/m
293.15 K, m1 = 0.027
  electrical conductivity: 0.153 ± 0.0031 S/m
293.15 K, m1 = 0.0285
  electrical conductivity: 0.156 ± 0.0031 S/m
293.15 K, m1 = 0.03
  electrical conductivity: 0.159 ± 0.0032 S/m
298.15 K, m1 = 0.0015
  electrical conductivity: 0.0143 ± 0.00029 S/m
298.15 K, m1 = 0.003
  electrical conductivity: 0.0273 ± 0.0006 S/m
298.15 K, m1 = 0.0045
  electrical conductivity: 0.0412 ± 0.0008 S/m
298.15 K, m1 = 0.006
  electrical conductivity: 0.0535 ± 0.0011 S/m
298.15 K, m1 = 0.0075
  electrical conductivity: 0.0669 ± 0.0014 S/m
298.15 K, m1 = 0.009
  electrical conductivity: 0.0784 ± 0.0016 S/m
298.15 K, m1 = 0.0105
  electrical conductivity: 0.091 ± 0.0018 S/m
298.15 K, m1 = 0.012
  electrical conductivity: 0.102 ± 0.0021 S/m
298.15 K, m1 = 0.0135
  electrical conductivity: 0.113 ± 0.0023 S/m
298.15 K, m1 = 0.015
  electrical conductivity: 0.123 ± 0.0025 S/m
298.15 K, m1 = 0.0165
  electrical conductivity: 0.132 ± 0.0027 S/m
298.15 K, m1 = 0.018
  electrical conductivity: 0.137 ± 0.0027 S/m
298.15 K, m1 = 0.0195
  electrical conductivity: 0.14 ± 0.0028 S/m
298.15 K, m1 = 0.021
  electrical conductivity: 0.142 ± 0.0029 S/m
298.15 K, m1 = 0.0225
  electrical conductivity: 0.145 ± 0.0029 S/m
298.15 K, m1 = 0.024
  electrical conductivity: 0.148 ± 0.003 S/m
298.15 K, m1 = 0.0255
  electrical conductivity: 0.151 ± 0.003 S/m
298.15 K, m1 = 0.027
  electrical conductivity: 0.154 ± 0.0031 S/m
298.15 K, m1 = 0.0285
  electrical conductivity: 0.156 ± 0.0031 S/m
298.15 K, m1 = 0.03
  electrical conductivity: 0.159 ± 0.0032 S/m
303.15 K, m1 = 0.0015
  electrical conductivity: 0.0144 ± 0.00031 S/m
303.15 K, m1 = 0.003
  electrical conductivity: 0.0278 ± 0.0006 S/m
303.15 K, m1 = 0.0045
  electrical conductivity: 0.0413 ± 0.0008 S/m
303.15 K, m1 = 0.006
  electrical conductivity: 0.055 ± 0.0011 S/m
303.15 K, m1 = 0.0075
  electrical conductivity: 0.0675 ± 0.0014 S/m
303.15 K, m1 = 0.009
  electrical conductivity: 0.0798 ± 0.0016 S/m
303.15 K, m1 = 0.0105
  electrical conductivity: 0.0908 ± 0.0018 S/m
303.15 K, m1 = 0.012
  electrical conductivity: 0.103 ± 0.0021 S/m
303.15 K, m1 = 0.0135
  electrical conductivity: 0.114 ± 0.0023 S/m
303.15 K, m1 = 0.015
  electrical conductivity: 0.126 ± 0.0026 S/m
303.15 K, m1 = 0.0165
  electrical conductivity: 0.132 ± 0.0027 S/m
303.15 K, m1 = 0.018
  electrical conductivity: 0.137 ± 0.0028 S/m
303.15 K, m1 = 0.0195
  electrical conductivity: 0.141 ± 0.0028 S/m
303.15 K, m1 = 0.021
  electrical conductivity: 0.143 ± 0.0029 S/m
303.15 K, m1 = 0.0225
  electrical conductivity: 0.146 ± 0.0029 S/m
303.15 K, m1 = 0.024
  electrical conductivity: 0.149 ± 0.003 S/m
303.15 K, m1 = 0.0255
  electrical conductivity: 0.151 ± 0.003 S/m
303.15 K, m1 = 0.027
  electrical conductivity: 0.154 ± 0.0031 S/m
303.15 K, m1 = 0.0285
  electrical conductivity: 0.156 ± 0.0031 S/m
303.15 K, m1 = 0.03
  electrical conductivity: 0.16 ± 0.0032 S/m
308.15 K, m1 = 0.0015
  electrical conductivity: 0.0153 ± 0.0004 S/m
308.15 K, m1 = 0.003
  electrical conductivity: 0.0286 ± 0.0007 S/m
308.15 K, m1 = 0.0045
  electrical conductivity: 0.042 ± 0.001 S/m
308.15 K, m1 = 0.006
  electrical conductivity: 0.0551 ± 0.0013 S/m
308.15 K, m1 = 0.0075
  electrical conductivity: 0.068 ± 0.0016 S/m
308.15 K, m1 = 0.009
  electrical conductivity: 0.0808 ± 0.0019 S/m
308.15 K, m1 = 0.0105
  electrical conductivity: 0.0927 ± 0.0022 S/m
308.15 K, m1 = 0.012
  electrical conductivity: 0.105 ± 0.0025 S/m
308.15 K, m1 = 0.0135
  electrical conductivity: 0.117 ± 0.0027 S/m
308.15 K, m1 = 0.015
  electrical conductivity: 0.128 ± 0.0028 S/m
308.15 K, m1 = 0.0165
  electrical conductivity: 0.134 ± 0.0029 S/m
308.15 K, m1 = 0.018
  electrical conductivity: 0.139 ± 0.003 S/m
308.15 K, m1 = 0.0195
  electrical conductivity: 0.142 ± 0.0031 S/m
308.15 K, m1 = 0.021
  electrical conductivity: 0.145 ± 0.0032 S/m
308.15 K, m1 = 0.0225
  electrical conductivity: 0.148 ± 0.0032 S/m
308.15 K, m1 = 0.024
  electrical conductivity: 0.151 ± 0.0033 S/m
308.15 K, m1 = 0.0255
  electrical conductivity: 0.154 ± 0.0034 S/m
308.15 K, m1 = 0.027
  electrical conductivity: 0.158 ± 0.0034 S/m
308.15 K, m1 = 0.0285
  electrical conductivity: 0.16 ± 0.0035 S/m
308.15 K, m1 = 0.03
  electrical conductivity: 0.163 ± 0.0035 S/m
313.15 K, m1 = 0.0015
  electrical conductivity: 0.0169 ± 0.00046 S/m
313.15 K, m1 = 0.003
  electrical conductivity: 0.032 ± 0.0009 S/m
313.15 K, m1 = 0.0045
  electrical conductivity: 0.0469 ± 0.0013 S/m
313.15 K, m1 = 0.006
  electrical conductivity: 0.061 ± 0.0017 S/m
313.15 K, m1 = 0.0075
  electrical conductivity: 0.0759 ± 0.0021 S/m
313.15 K, m1 = 0.009
  electrical conductivity: 0.0895 ± 0.0025 S/m
313.15 K, m1 = 0.0105
  electrical conductivity: 0.103 ± 0.0029 S/m
313.15 K, m1 = 0.012
  electrical conductivity: 0.116 ± 0.0032 S/m
313.15 K, m1 = 0.0135
  electrical conductivity: 0.129 ± 0.0033 S/m
313.15 K, m1 = 0.015
  electrical conductivity: 0.137 ± 0.0033 S/m
313.15 K, m1 = 0.0165
  electrical conductivity: 0.144 ± 0.0035 S/m
313.15 K, m1 = 0.018
  electrical conductivity: 0.149 ± 0.0035 S/m
313.15 K, m1 = 0.0195
  electrical conductivity: 0.152 ± 0.0036 S/m
313.15 K, m1 = 0.021
  electrical conductivity: 0.156 ± 0.0037 S/m
313.15 K, m1 = 0.0225
  electrical conductivity: 0.16 ± 0.0039 S/m
313.15 K, m1 = 0.024
  electrical conductivity: 0.162 ± 0.0039 S/m
313.15 K, m1 = 0.0255
  electrical conductivity: 0.165 ± 0.0039 S/m
313.15 K, m1 = 0.027
  electrical conductivity: 0.168 ± 0.004 S/m
313.15 K, m1 = 0.0285
  electrical conductivity: 0.171 ± 0.0041 S/m
313.15 K, m1 = 0.03
  electrical conductivity: 0.173 ± 0.0041 S/m
